Measurements from ChEMBL document CHEMBL1201862, “PubChem BioAssay data set” (2004).
Active and inactive are the calls of the source.

Key:
[1] = molecular target: Glyceraldehyde-3-phosphate dehydrogenase (Homo sapiens, UniProt P04406)
Bcl-2-related protein A1 [2] = molecular target: T1, Bcl-2-related protein A1 (Mus musculus, UniProt Q07440); experiment: Bfl-1 binding inhibitors, SAR follow-up, biochemical, fluorescence polarization (AID 1070)
T1 sequence (Q07440 whole entry): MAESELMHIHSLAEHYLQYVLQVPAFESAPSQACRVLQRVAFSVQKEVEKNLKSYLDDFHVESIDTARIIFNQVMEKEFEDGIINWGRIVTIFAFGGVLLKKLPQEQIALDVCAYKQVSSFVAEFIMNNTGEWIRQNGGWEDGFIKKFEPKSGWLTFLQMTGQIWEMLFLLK

Bcl-2-related protein A1 [3] = molecular target: T1, Bcl-2-related protein A1; experiment: small-molecule antagonists of Bfl-1/BH3 interaction – biochemical, TR-FRET, mouse Bfl-1, confirmation (AID 621);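 note: TR-FRET binding of GST-Bfl-1 to FITC-labelled Bid peptide via terbium antibody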
[4] = molecular target: Neuropeptide Y receptor type 1 (Homo sapiens, UniProt P25929); experiment: Fluorescence-based dose response cell-based high-throughput screening assay for agonists of NPY-Y1. [Related pubchem assays: 1697 (Screening assay (NPY-Y1 agonists).), 1359 (Screening assay (NPY-Y2 potentiators or agonists).), 1304 (Screening assay (NPY-Y1 potentiators or agonists).), 1704 (Screening assay (CNGC inhibitors).), 1791 (Summary AID.)]; assay type: functional
[5] = molecular target: Neuropeptide Y receptor type 2 (Homo sapiens, UniProt P49146); experiment: Fluorescence-based counterscreen for agonists of NPY-Y1: cell-based high-throughput dose response assay for agonists of NPY-Y2.; assay type: functional
Streptokinase A = molecular target: T2, Streptokinase A (Streptococcus pyogenes serotype M1, UniProt P10520); experiment: viability-normalized secreted streptokinase activity reduction – plasminogen activation absorbance, OD405, dose response (AID 1914); assay type: functional, Streptococcus pyogenes M1 GAS;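 note: secreted streptokinase activity via plasminogen activation per viability signal from cell pellet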
T2 sequence (P10520 whole entry): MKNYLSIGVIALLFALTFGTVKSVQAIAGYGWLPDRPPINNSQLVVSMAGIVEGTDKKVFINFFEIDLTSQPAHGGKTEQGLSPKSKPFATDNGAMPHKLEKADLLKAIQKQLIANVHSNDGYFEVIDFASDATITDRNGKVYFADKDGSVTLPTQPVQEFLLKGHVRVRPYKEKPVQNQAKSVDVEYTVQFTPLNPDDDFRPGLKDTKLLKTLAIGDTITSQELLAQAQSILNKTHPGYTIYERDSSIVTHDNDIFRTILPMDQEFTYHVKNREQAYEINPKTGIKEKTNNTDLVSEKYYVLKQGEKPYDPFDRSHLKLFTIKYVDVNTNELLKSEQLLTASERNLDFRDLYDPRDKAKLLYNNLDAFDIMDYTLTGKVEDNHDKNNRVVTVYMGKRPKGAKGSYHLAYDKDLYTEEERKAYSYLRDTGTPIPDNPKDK

[6] = viability loss of HPDE-C7K cells – cell-based, fluorescence, HTS, primary screen (AID 431); assay type: functional; conditions: Homo sapiens
[7] = HPDE-C7 pancreatic duct cell viability loss – fluorescence, HTS (AID 430); assay type: functional, cell-based; conditions: Homo sapiens

Neuropeptide Y receptor type 2, sequence (P49146 whole entry): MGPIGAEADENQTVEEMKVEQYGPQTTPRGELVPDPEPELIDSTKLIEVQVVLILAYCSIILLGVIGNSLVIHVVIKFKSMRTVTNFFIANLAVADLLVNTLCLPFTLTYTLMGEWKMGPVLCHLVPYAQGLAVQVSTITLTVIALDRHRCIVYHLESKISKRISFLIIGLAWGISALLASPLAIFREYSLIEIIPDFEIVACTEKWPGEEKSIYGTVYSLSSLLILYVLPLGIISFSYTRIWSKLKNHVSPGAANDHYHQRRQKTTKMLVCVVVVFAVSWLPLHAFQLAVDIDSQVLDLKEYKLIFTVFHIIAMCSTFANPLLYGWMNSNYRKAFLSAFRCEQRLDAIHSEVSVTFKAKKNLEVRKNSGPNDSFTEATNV
Neuropeptide Y receptor type 1, sequence (P25929 whole entry): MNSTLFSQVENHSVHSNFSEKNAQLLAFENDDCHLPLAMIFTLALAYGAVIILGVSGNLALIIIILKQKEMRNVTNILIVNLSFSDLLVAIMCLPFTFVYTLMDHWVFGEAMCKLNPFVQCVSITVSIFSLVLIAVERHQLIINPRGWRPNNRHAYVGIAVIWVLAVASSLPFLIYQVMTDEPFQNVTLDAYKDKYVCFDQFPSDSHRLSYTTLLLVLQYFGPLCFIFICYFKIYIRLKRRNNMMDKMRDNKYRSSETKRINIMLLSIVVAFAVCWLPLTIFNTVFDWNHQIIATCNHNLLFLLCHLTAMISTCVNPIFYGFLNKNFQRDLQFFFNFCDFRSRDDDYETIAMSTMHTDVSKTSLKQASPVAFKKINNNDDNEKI
Glyceraldehyde-3-phosphate dehydrogenase, sequence (P04406 whole entry): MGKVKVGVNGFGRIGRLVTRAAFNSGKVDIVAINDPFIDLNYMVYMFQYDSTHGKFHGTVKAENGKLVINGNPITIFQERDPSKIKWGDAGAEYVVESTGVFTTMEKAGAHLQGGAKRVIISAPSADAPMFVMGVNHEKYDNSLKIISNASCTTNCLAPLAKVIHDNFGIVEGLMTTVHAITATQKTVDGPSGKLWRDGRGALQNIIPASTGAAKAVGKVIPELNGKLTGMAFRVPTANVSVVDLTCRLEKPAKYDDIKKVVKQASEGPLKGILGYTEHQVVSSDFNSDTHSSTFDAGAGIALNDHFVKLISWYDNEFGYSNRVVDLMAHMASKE

CCN1CCN(C2=C(Cl)C(=O)N(c3ccc([N+](=O)[O-])cc3)C2=O)CC1
IC50 [1]: > 100 µM (not active) | IC50 (Bcl-2-related protein A1 [2]): 565 nM (active) | IC50 (Bcl-2-related protein A1 [3]): 830 nM (active)

CCOc1ccc(NC(=S)NNC(=S)Nc2cccc(C(F)(F)F)c2)cc1
EC50 [4]: 27.3 µM (not active) | EC50 [5]: > 35.4 µM (not active) | EC50 (Streptokinase A): > 150 µM (not active)

Cc1cc(C(=O)Nc2sc3c(c2C#N)CCC(C)C3)cs1 (stereo not drawn)
EC50 [6]: > 20 µM (not active) | EC50 [7]: > 20 µM (not active)
